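How tested: cells in 96-well plates exposed to compound for 48 hours at five concentrations. The concentration for 50% growth inhibition is given as GI50.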 Active and inactive are the calls of the source. Rule as the data show it: active = GI50 up to about 1.1 µM and inactive = higher.
Experiments:
Assay in all cases: NCI-60 cell line screen, 48 h
[1] = tested on: CCRF-CEM
[2] = tested on: COLO 205
[3] = tested on: EKVX
[4] = tested on: HCC 2998
[5] = tested on: HL-60
[6] = tested on: IGROV-1
[7] = tested on: LXFL 529
[8] = tested on: M14
[9] = tested on: NCI-H23
[10] = tested on: RXF 393
[11] = tested on: SF-268
[12] = tested on: SF-295
[13] = tested on: SK-MEL-5
[14] = tested on: SNB-75
[15] = tested on: U-251
[16] = tested on: UACC-62
[17] = tested on: UO-31
[18] = tested on: RPMI-8226

SMILES | GI50 [1] | GI50 [2] | GI50 [3] | GI50 [4] | GI50 [5] | GI50 [6] | GI50 [7] | GI50 [8] | GI50 [9] | GI50 [10] | GI50 [11] | GI50 [12] | GI50 [13] | GI50 [14] | GI50 [15] | GI50 [16] | GI50 [17] | GI50 [18]
Nc1nc(CCC(=O)Nc2cccc(C(F)(F)F)c2)cc(-c2cccc3ccccc23)n1 | > 100 µM (inactive) | > 100 µM (inactive) | > 100 µM (inactive) | > 100 µM (inactive) | > 100 µM (inactive) | > 100 µM (inactive) | > 100 µM (inactive) | > 100 µM (inactive) | > 100 µM (inactive) | > 100 µM (inactive) | > 100 µM (inactive) | > 100 µM (inactive) | > 100 µM (inactive) | > 100 µM (inactive) | > 100 µM (inactive) | > 100 µM (inactive) | > 100 µM (inactive) | –
CC12CC(Sc3ccccc3N1)c1ccccc1O2 (stereo not given) | 12.1 µM (inactive) | 16.2 µM (inactive) | 18.6 µM (inactive) | 17.1 µM (inactive) | 11 µM (inactive) | 21.9 µM (inactive) | 15.2 µM (inactive) | 18.3 µM (inactive) | 15.7 µM (inactive) | 15.9 µM (inactive) | 16.1 µM (inactive) | 16 µM (inactive) | 14.8 µM (inactive) | 28.2 µM (inactive) | 13.2 µM (inactive) | 17 µM (inactive) | 14.1 µM (inactive) | 13.6 µM (inactive)
Cc1cn(C2CC(O)C(CO)O2)c(=O)n2nnnc12 (stereo not given) | > 100 µM (inactive) | > 100 µM (inactive) | > 100 µM (inactive) | > 100 µM (inactive) | > 100 µM (inactive) | > 100 µM (inactive) | > 100 µM (inactive) | > 100 µM (inactive) | > 100 µM (inactive) | – | > 100 µM (inactive) | > 100 µM (inactive) | > 100 µM (inactive) | > 100 µM (inactive) | > 100 µM (inactive) | > 100 µM (inactive) | > 100 µM (inactive) | > 100 µM (inactive)
CC(=O)O[C@H]1CC[C@@]2(C)C(CC[C@]3(C)C2CC[C@]2(C)Oc4c(C)cc(O)cc4C[C@@H]23)C1(C)C (stereo not given in full) | 3.79 µM (inactive) | 14.5 µM (inactive) | 19.5 µM (inactive) | 7.6 µM (inactive) | 3.82 µM (inactive) | 13.5 µM (inactive) | 3.65 µM (inactive) | 11.9 µM (inactive) | 6.56 µM (inactive) | 2.88 µM (inactive) | 4.61 µM (inactive) | 2.17 µM (inactive) | 5.87 µM (inactive) | 2.96 µM (inactive) | 2.71 µM (inactive) | 8.59 µM (inactive) | 8.75 µM (inactive) | 2.5 µM (inactive)
O=C1Nc2ccccc2C12CCCC2 | > 100 µM (inactive) | > 100 µM (inactive) | 72.3 µM (inactive) | > 100 µM (inactive) | > 100 µM (inactive) | > 100 µM (inactive) | > 100 µM (inactive) | > 100 µM (inactive) | > 100 µM (inactive) | > 100 µM (inactive) | > 100 µM (inactive) | > 100 µM (inactive) | > 100 µM (inactive) | 54.6 µM (inactive) | > 100 µM (inactive) | > 100 µM (inactive) | > 100 µM (inactive) | > 100 µM (inactive)
CCOC(=O)C1S/C(=N\c2ccc(OC)c(OC)c2)N=C1C (stereo not given) | 22.1 µM (inactive) | 69.3 µM (inactive) | 94.8 µM (inactive) | 51.9 µM (inactive) | 19.2 µM (inactive) | 56.6 µM (inactive) | 33.3 µM (inactive) | 46.7 µM (inactive) | 27.7 µM (inactive) | 29.9 µM (inactive) | 33.6 µM (inactive) | 36.5 µM (inactive) | 18.4 µM (inactive) | 24.5 µM (inactive) | 36.2 µM (inactive) | 26.3 µM (inactive) | 34.6 µM (inactive) | –
CC(=O)OC1CCn2nnc(COC(=O)NC(C)C)c21 (stereo not given) | – | – | > 100 µM (inactive) | > 100 µM (inactive) | – | > 100 µM (inactive) | > 100 µM (inactive) | > 100 µM (inactive) | > 100 µM (inactive) | > 100 µM (inactive) | – | > 100 µM (inactive) | > 100 µM (inactive) | > 100 µM (inactive) | > 100 µM (inactive) | > 100 µM (inactive) | > 100 µM (inactive) | > 100 µM (inactive)
CC[P+](C)(C)CC | > 100 µM (inactive) | > 100 µM (inactive) | > 100 µM (inactive) | > 100 µM (inactive) | > 100 µM (inactive) | > 100 µM (inactive) | > 100 µM (inactive) | > 100 µM (inactive) | > 100 µM (inactive) | > 100 µM (inactive) | > 100 µM (inactive) | > 100 µM (inactive) | > 100 µM (inactive) | > 100 µM (inactive) | > 100 µM (inactive) | > 100 µM (inactive) | > 100 µM (inactive) | > 100 µM (inactive)
CCOC(=O)C(=O)Nc1ccccc1C(F)(F)F | – | > 100 µM (inactive) | > 100 µM (inactive) | > 100 µM (inactive) | – | > 100 µM (inactive) | > 100 µM (inactive) | > 100 µM (inactive) | > 100 µM (inactive) | > 100 µM (inactive) | > 100 µM (inactive) | > 100 µM (inactive) | – | 79.4 µM (inactive) | > 100 µM (inactive) | > 100 µM (inactive) | > 100 µM (inactive) | > 100 µM (inactive)
CC1=C(C(=O)Nc2ccccc2C)C(/C=C/c2ccccc2)C(C(=O)Nc2ccccc2C)=C(C)N1 | 82.6 µM (inactive) | > 100 µM (inactive) | > 100 µM (inactive) | > 100 µM (inactive) | 72.3 µM (inactive) | > 100 µM (inactive) | > 100 µM (inactive) | > 100 µM (inactive) | > 100 µM (inactive) | 51.1 µM (inactive) | > 100 µM (inactive) | > 100 µM (inactive) | > 100 µM (inactive) | 33.5 µM (inactive) | 85.1 µM (inactive) | > 100 µM (inactive) | 34.8 µM (inactive) | –
CC(C)=C1CCC(CN2CCCC2)C1=O (stereo not given) | 17.7 µM (inactive) | – | > 100 µM (inactive) | 20.3 µM (inactive) | 19.7 µM (inactive) | 75.2 µM (inactive) | 18 µM (inactive) | 19.2 µM (inactive) | > 100 µM (inactive) | 21.4 µM (inactive) | 33.8 µM (inactive) | > 100 µM (inactive) | > 100 µM (inactive) | 55.2 µM (inactive) | – | > 100 µM (inactive) | 20.8 µM (inactive) | 11.8 µM (inactive)
C=C1C(=O)O[C@H](c2ccoc2)C[C@@H]1[C@@]1(C)CCCC2(C)C(=O)OCC21 (stereo not given in full) | > 100 µM (inactive) | > 100 µM (inactive) | > 100 µM (inactive) | > 100 µM (inactive) | – | > 100 µM (inactive) | > 100 µM (inactive) | > 100 µM (inactive) | > 100 µM (inactive) | > 100 µM (inactive) | > 100 µM (inactive) | > 100 µM (inactive) | > 100 µM (inactive) | > 100 µM (inactive) | > 100 µM (inactive) | > 100 µM (inactive) | > 100 µM (inactive) | > 100 µM (inactive)
C[C@H](NC(=O)n1c2ccccc2c2ccccc21)C(=O)O | > 100 µM (inactive) | > 100 µM (inactive) | > 100 µM (inactive) | > 100 µM (inactive) | > 100 µM (inactive) | > 100 µM (inactive) | > 100 µM (inactive) | – | > 100 µM (inactive) | > 100 µM (inactive) | > 100 µM (inactive) | > 100 µM (inactive) | > 100 µM (inactive) | – | > 100 µM (inactive) | > 100 µM (inactive) | – | > 100 µM (inactive)
CN(C)CCC(=O)N1CCc2c([nH]c3ccccc23)C1c1cccnc1 (stereo not given) | > 100 µM (inactive) | – | > 100 µM (inactive) | > 100 µM (inactive) | > 100 µM (inactive) | > 100 µM (inactive) | 34.9 µM (inactive) | > 100 µM (inactive) | > 100 µM (inactive) | 0.192 µM (active) | > 100 µM (inactive) | > 100 µM (inactive) | > 100 µM (inactive) | 78.3 µM (inactive) | > 100 µM (inactive) | > 100 µM (inactive) | 41.6 µM (inactive) | > 100 µM (inactive)
CN1CCN2c3ccccc3CC(C#N)(C#N)C2C1 (stereo not given) | > 100 µM (inactive) | > 100 µM (inactive) | > 100 µM (inactive) | > 100 µM (inactive) | > 100 µM (inactive) | > 100 µM (inactive) | > 100 µM (inactive) | > 100 µM (inactive) | > 100 µM (inactive) | > 100 µM (inactive) | > 100 µM (inactive) | > 100 µM (inactive) | > 100 µM (inactive) | > 100 µM (inactive) | > 100 µM (inactive) | > 100 µM (inactive) | > 100 µM (inactive) | > 100 µM (inactive)
Cc1c(Cl)cccc1NC(=O)c1cccc([N+](=O)[O-])c1O | 4.2 µM (inactive) | 14.1 µM (inactive) | 16 µM (inactive) | 7.18 µM (inactive) | 8.39 µM (inactive) | 5.83 µM (inactive) | 11.3 µM (inactive) | 16.8 µM (inactive) | 6.87 µM (inactive) | 4.29 µM (inactive) | 20.3 µM (inactive) | 16.4 µM (inactive) | 3.26 µM (inactive) | 17.5 µM (inactive) | 9.44 µM (inactive) | 2.18 µM (inactive) | 10.5 µM (inactive) | 3.24 µM (inactive)

— ChEMBL document CHEMBL1201862, “PubChem BioAssay data set” (2004)
